Assay results published in patent US20080085889A1, “Amidomethyl-Substituted 1-(Carboxyalkyl) Cyclopentyl-Carbonylamino-Benzazepine-N-Acetic Acid Compounds, Process and Intermediate Products for Their Preparation and Pharmaceutical Compositions Containing Them” (SOLVAY PHARMACEUTICALS GmbH, priority 2003, published 2008).
Like-named read-outs stand apart in the source and are kept apart here.

What was measured:
[1] = target: T1, hSEP (sol hu)(his)6; His6-tagged hSEP ectodomain (Homo sapiens, UniProt Q495T6); experiment: Enzymatic breakdown of CNP and VIP by hSEP and its inhibition, in vitro, HPLC; format: biochemical
T1 construct: His6-tagged hSEP ectodomain; His6; purchased Innogenetics, Ghent, Belgium
T1 sequence (Q495T6 49-779 limits assumed): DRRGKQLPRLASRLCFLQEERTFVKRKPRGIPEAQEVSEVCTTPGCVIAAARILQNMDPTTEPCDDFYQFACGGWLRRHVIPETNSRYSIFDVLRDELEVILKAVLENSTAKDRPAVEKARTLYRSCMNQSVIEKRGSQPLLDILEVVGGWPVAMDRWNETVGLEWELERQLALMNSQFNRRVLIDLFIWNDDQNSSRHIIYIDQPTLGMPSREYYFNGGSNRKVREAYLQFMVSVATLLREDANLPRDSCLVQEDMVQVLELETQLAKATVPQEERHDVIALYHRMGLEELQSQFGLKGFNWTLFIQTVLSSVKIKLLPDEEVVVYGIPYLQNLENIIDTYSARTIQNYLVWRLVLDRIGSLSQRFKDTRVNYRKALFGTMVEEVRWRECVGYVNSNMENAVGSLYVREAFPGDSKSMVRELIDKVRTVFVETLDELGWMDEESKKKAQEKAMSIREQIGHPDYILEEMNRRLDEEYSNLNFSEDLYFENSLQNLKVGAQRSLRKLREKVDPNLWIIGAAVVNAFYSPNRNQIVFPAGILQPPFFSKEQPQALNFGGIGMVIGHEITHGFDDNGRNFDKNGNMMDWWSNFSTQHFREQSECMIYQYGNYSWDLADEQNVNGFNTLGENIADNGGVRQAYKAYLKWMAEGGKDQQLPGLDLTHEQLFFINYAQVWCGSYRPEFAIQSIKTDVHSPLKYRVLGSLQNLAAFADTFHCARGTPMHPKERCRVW
Description: (§1) The inhibition of the enzymatic breakdown of CNP and VIP by the compounds used according to the invention was measured in an enzymatic in vitro assay according to the following protocol:
(§2) All test compounds were dissolved in DMSO at 10 mM and further diluted with assay buffer.
(§3) 80 μl of assay buffer, 10 μl of enzyme working solution (NEP or hSEP) and 10 μl of peptide stock solution (VIP or CNP) were mixed in an Eppendorf vial and incubated for 120 min. at 37° C. The enzymatic reaction was subsequently terminated by heating to 95° C. for 5 min. After centrifugation (Heraeus Biofuge B, 3 min) the supernatant was subjected to HPLC.
70 μl of assay buffer, 10 μl of enzyme working solution (NEP or hSEP) and 10 μl of a test compound solution were mixed in an Eppendorf vial and preincubated at 37° C. for 15 minutes. Then, 10 μl of peptide stock solution (VIP or CNP) was added and the reaction mixture was incubated at 37° C. for 60 min. to allow enzymatic hydrolysis. The enzymatic reaction was subsequently terminated by heating to 95° C. for 5 min. After centrifugation (Heraeus Biofuge B, 3 min) the supernatant was subjected to HPLC. In order to separate the remaining substrate from the cleavage products, a reversed phase HPLC technique with a CC 125/4 Nucleosil 300/5 C18 RP column and a CC 8/4 Nucleosil 100/5 C18 precolumn (Macherey-Nagel, Düren, Germany) was used. 60 μl of the reaction samples were injected into the HPLC and the column was eluted at a flow rate of 1 ml/min with the following gradient:
(§4) All peptides were detected by absorbance at 214 nm (UV spectroscopy). The percentage (=%) of hydrolysis was calculated on the basis of the peak area of the undegraded peptide for an enzyme containing sample Y in correlation to a sample containing the same concentration of peptide without enzyme (blank) by the following equation: % hydrolysis=100*(blank−Y)
Basis of the calculation of % inhibition is the peak area of the undegraded peptide (VIP or CNP) for an inhibitor containing sample X in comparison to samples containing only peptide (blank) or peptide and enzyme without inhibitor (control) according to the following equation: % inhib=100*(X−control)/(blank−control)
All samples were run in duplicate and mean values were used. A solvent control (0.1% DMSO) was added to each assay run. CNP and VIP were cleaved by NEP and hSEP in vitro.

[2] = system: NEP (prepared from pig kidney cortex); experiment: Enzymatic breakdown of CNP and VIP by NEP and its inhibition, in vitro, HPLC; format: biochemical
Description: as §1, §2, §3
70 μl of assay buffer, 10 μl of enzyme working solution (NEP or hSEP) and 10 μl of a test compound solution were mixed in an Eppendorf vial and preincubated at 37° C. for 15 minutes. Then, 10 μl of peptide stock solution (VIP or CNP) was added and the reaction mixture was incubated at 37° C. for 60 min. to allow enzymatic hydrolysis. […]
as §4, with “hydrolysis=100*(blank−Y) […]” for “hydrolysis=100*(blank−Y)”

**Q.** Which results are given for “{(3S)-3-[({1-[(2″rel1″)-2-ethoxycarbonyl)-4-(isopropylamino)-4-oxobutyl]cyclopentyl}-carbonyl)amino]-2-oxo-2,3,4,5-tetrahydro-1H-1-benzazepin-1-yl}acetic acid [Example 4]”?
**A.** IC50 ([1]; substrate CNP (32-53), read-out: inhibition of breakdown of CNP by hSEP, IC50): 1 nM; IC50 ([1]; substrate VIP, read-out: inhibition of breakdown of VIP by hSEP, IC50): 3.1 nM; IC50 ([2]; substrate CNP (32-53), read-out: inhibition of breakdown of CNP by NEP, IC50): 10.1 nM; IC50 ([2]; substrate VIP, read-out: inhibition of breakdown of VIP by NEP, IC50): 3.1 nM
